Laboratory results taken from patent US11918352B2, “Non-invasive determination of a physiological state of interest in a subject” (ISBRG CORP., priority 2018, dated 2024).

Legend:
[1] = Analyte composition of a subject after consumption (Table 2, simplified illustrative data set); format: in vivo, human; settings: for Analyte level, intoxicated state: 1 hr after consumption, THC induced intoxicated state; for Analyte level, post-intoxicated state: 36 hr after consumption
Text: For example, which is not to be considered limiting, in a THC induced intoxicated state, a subject may comprise the analyte composition presented in Table 1. It is to be understood that this table presents a simplified data set to exemplify the method described herein. Other analytes, which may include known analytes or ghost analytes, are indicated as analytes A, B . . . C; A′, B′, . . . C′; A″, B″ . . . C″. These other analytes may increase or decrease in response to, or that are correlated with, the physiological condition and they may be included in this analysis.
In this example, the result may be considered positive for a THC-induced intoxicated state if the Index is greater than a preset value which is determined based on an analysis of the analytes determined in subjects who were exposed to a control treatment, or a range of THC under controlled conditions, for example an Index value of (2+A)/(C+ . . . +C) may be an indication of a positive result for the state of THC-induced intoxication.

[2] = cited from earlier work

SMILES	Analyte level, intoxicated state [1]	Analyte level, post-intoxicated state [1]	Residual THC in serum ([2]; chronic users of marijuana, detected for 24 to 48 hours or longer, serum)	Residual THC in whole blood ([2]; chronic users of marijuana, detected for 24 to 48 hours or longer, whole blood)	Time of THC peak ([2]; smoked marijuana, after inhaling)	THC level remaining ([2]; smoked marijuana, for 8 hours or more)
CCCCCc1cc(O)c2c(c1)OC(C)(C)C1CCC(CO)=CC21 (stereo not shown) [11-OH-THC, 11-hydroxy THC]	5 ng/mL	2 ng/mL	–	–	–	–
CCCCCc1cc(O)c2c(c1)OC(C)(C)[C@@H]1CCC(C)=C[C@@H]21 [THC, delta-9-tetrahydrocannabinol]	78 ng/mL	8 ng/mL	1.0 to 6.4 ng/mL	0.5 to 3.2 ng/mL	first few minutes	1 to 2 ng/mL
CCCCCc1cc(O)c2c(c1)OC(C)(C)[C@@H]1CCC(C(=O)O)=C[C@@H]21 [THC-COOH, 11-nor-9-carboxy-THC]	5 ng/mL	11 ng/mL	–	–	–	–
